Data as given in ChEMBL document CHEMBL1201862, “PubChem BioAssay data set” (2004).
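How tested: cells in 96-well plates exposed to compound for 48 hours at five concentrations. GI50 marks 50% less growth.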 Activity calls are given as the source filed them. Rule as the data show it: active = GI50 up to about 1.1 µM and inactive = higher.

Experiments:
Test in all cases: NCI-60 cell line screen, 48 h
OVCAR-4 = system: OVCAR-4
HCT-116 = system: HCT-116
MDA-MB-435 = system: MDA-MB-435
RPMI-8226 = system: RPMI-8226
SF-295 = system: SF-295
NCI-H226 = system: NCI-H226
MOLT-4 = system: MOLT-4
NCI/ADR-RES = system: NCI/ADR-RES
COLO 205 = system: COLO 205
SK-MEL-5 = system: SK-MEL-5
MCF7 = system: MCF7
A498 = system: A498
HCC 2998 = system: HCC 2998
U-251 = system: U-251
DU-145 = system: DU-145
HOP-62 = system: HOP-62
Malme-3M = system: Malme-3M
HOP-92 = system: HOP-92
HT-29 = system: HT-29
ACHN = system: ACHN

Measured: GI50

c1ccc2c(c1)nc1n2C2CCC(C2)N1 (stereo unspecified)
inactive: OVCAR-4 > 10 µM | HCT-116 > 10 µM | MDA-MB-435 > 10 µM | RPMI-8226 > 10 µM | SF-295 > 10 µM | NCI-H226 > 10 µM | MOLT-4 > 10 µM | NCI/ADR-RES > 10 µM | COLO 205 > 10 µM | SK-MEL-5 > 10 µM | MCF7 > 10 µM | A498 > 10 µM | HCC 2998 > 10 µM | U-251 > 10 µM | DU-145 > 10 µM | HOP-62 > 10 µM | Malme-3M > 10 µM | HOP-92 > 10 µM | HT-29 > 10 µM

Cc1c(N2CCCC2)cc2c(c1NC(=O)c1ccccc1Cl)C(C)(C)CC2(C)C
inactive: OVCAR-4 15.7 µM | ACHN 15 µM | HCT-116 10.6 µM | MDA-MB-435 14.4 µM | RPMI-8226 12.9 µM | SF-295 13.3 µM | NCI-H226 23.2 µM | NCI/ADR-RES 13.4 µM | COLO 205 18.2 µM | SK-MEL-5 16.8 µM | MCF7 13.8 µM | A498 15 µM | HCC 2998 13.1 µM | U-251 14.5 µM | DU-145 15.9 µM | HOP-62 14.2 µM | Malme-3M 17.7 µM | HOP-92 11.5 µM | HT-29 14.3 µM

c1ccc2nc(CCC3CCCCN3)ccc2c1 (stereo unspecified)
inactive: OVCAR-4 > 100 µM | ACHN > 100 µM | HCT-116 > 100 µM | MDA-MB-435 97.7 µM | RPMI-8226 39.9 µM | SF-295 53 µM | NCI-H226 > 100 µM | NCI/ADR-RES 49.5 µM | COLO 205 16.7 µM | SK-MEL-5 38.2 µM | MCF7 > 100 µM | A498 77.6 µM | HCC 2998 > 100 µM | U-251 > 100 µM | DU-145 > 100 µM | HOP-62 85.5 µM | Malme-3M 91.4 µM | HOP-92 > 100 µM | HT-29 > 100 µM

O=C(O)CC(C(=O)O)c1ccccc1[N+](=O)[O-] (stereo unspecified)
inactive: OVCAR-4 > 100 µM | ACHN > 100 µM | HCT-116 > 100 µM | MDA-MB-435 > 100 µM | RPMI-8226 > 100 µM | SF-295 > 100 µM | NCI-H226 > 100 µM | NCI/ADR-RES > 100 µM | COLO 205 > 100 µM | SK-MEL-5 > 100 µM | MCF7 > 100 µM | A498 > 100 µM | HCC 2998 > 100 µM | U-251 > 100 µM | DU-145 > 100 µM | HOP-62 > 100 µM | Malme-3M > 100 µM | HOP-92 > 100 µM | HT-29 > 100 µM
